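A five-concentration, 48-hour dose response in 96-well plates underlies each endpoint, interpolated linearly between surrounding concentrations. TGI denotes the concentration required for complete inhibition of growth.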
What was measured:
Experiment in all cases: NCI-60 cell line screen, 48 h
786-0 renal = tested on: 786-0 renal
ACHN renal = tested on: ACHN renal
CAKI-1 renal = tested on: CAKI-1 renal
COLO 205 colon = tested on: COLO 205 colon
HT29 colon = tested on: HT29 colon
IGROV1 ovarian = tested on: IGROV1 ovarian
K-562 leukemia = tested on: K-562 leukemia
NCI-H23 lung = tested on: NCI-H23 lung
NCI/ADR-RES ovarian = tested on: NCI/ADR-RES ovarian
OVCAR-3 ovarian = tested on: OVCAR-3 ovarian
OVCAR-5 ovarian = tested on: OVCAR-5 ovarian
OVCAR-8 ovarian = tested on: OVCAR-8 ovarian
RXF 393 renal = tested on: RXF 393 renal
SF-539 CNS = tested on: SF-539 CNS
SK-MEL-28 melanoma = tested on: SK-MEL-28 melanoma
SNB-75 CNS = tested on: SNB-75 CNS
TK-10 renal = tested on: TK-10 renal
UACC-62 melanoma = tested on: UACC-62 melanoma
HOP-92 NSCLC = tested on: HOP-92 NSCLC
SNB-19 CNS = tested on: SNB-19 CNS

SMILES	TGI (786-0 renal) [µM]	TGI (ACHN renal) [µM]	TGI (CAKI-1 renal) [µM]	TGI (COLO 205 colon) [µM]	TGI (HT29 colon) [µM]	TGI (IGROV1 ovarian) [µM]	TGI (K-562 leukemia) [µM]	TGI (NCI-H23 lung) [µM]	TGI (NCI/ADR-RES ovarian) [µM]	TGI (OVCAR-3 ovarian) [µM]	TGI (OVCAR-5 ovarian) [µM]	TGI (OVCAR-8 ovarian) [µM]	TGI (RXF 393 renal) [µM]	TGI (SF-539 CNS) [µM]	TGI (SK-MEL-28 melanoma) [µM]	TGI (SNB-75 CNS) [µM]	TGI (TK-10 renal) [µM]	TGI (UACC-62 melanoma) [µM]	TGI (HOP-92 NSCLC) [µM]	TGI (SNB-19 CNS) [µM]
Cc1ccc(C(=O)Nc2ccc(CP(=O)(O)O)cc2CP(=O)(O)O)cc1NC(=O)c1cccc(N)c1	> 100	> 100	> 100	> 100	> 100	> 100	> 100	> 100	> 100	> 100	> 100	> 100	> 100	> 100	> 100	> 100	> 100	> 100		
COC(=O)CC(C(C(=O)OC)C(=O)OC)N1C(=O)OCC1c1ccccc1 (stereo unspecified)	> 100	> 100	> 100	> 100	> 100	> 100	> 100	> 100		> 100	> 100	> 100	> 100	> 100	> 100	> 100	> 100	> 100	> 100	> 100
CCN1CC2=C(NC(=S)NC2c2ccc(Cl)cc2)/C(=C/c2ccc(Cl)cc2)C1 (stereo unspecified)	> 100	> 100	> 100	> 100	> 100	> 100	> 100	> 100	> 100	> 100	> 100	> 100	> 100		> 100	> 100	> 100	> 100		> 100
CCCCCCCCCCCCCCCCCCNc1ccn(C2OC(COP(=O)(O)OCC3OC(n4ccc(NC(=O)CCCCCCCCCCCCCCCCC)nc4=O)C(OC(C)=O)C3OC(C)=O)C(OC(C)=O)C2OC(C)=O)c(=O)n1 (stereo unspecified)	> 100	> 100	> 100	> 100	> 100	> 100	> 100	> 100	> 100	> 100	> 100	> 100	> 100	> 100	> 100	> 100	> 100	> 100		> 100
NC(C(F)(F)F)(C(F)(F)F)P(=O)(Cc1ccccc1)Cc1ccccc1	> 100	> 100	> 100	> 100	> 100	> 100	> 100	> 100	> 100	> 100	> 100	> 100	> 100	> 100	> 100	> 100	> 100	> 100		> 100
O=c1[nH]n2c(=O)cc[nH]c2c1-c1nnns1	> 100	> 100	> 100	> 100	> 100	> 100	> 100	> 100		> 100	> 100		> 100	> 100	> 100	> 100	> 100		> 100	> 100
COc1ccc(C(C#N)NNC(=O)c2ccccc2O)cc1OC (stereo unspecified)	> 100	96.6	61.4	> 100	> 100	> 100	> 100	28.4		> 100	> 100	> 100	36.4	6.81	> 100	> 100	> 100	0.908		
c1ccc(C2C3=C(Nc4ncnn42)c2ccccc2C3)cc1 (stereo unspecified)	78.2	> 100	> 100	25.8	> 100	> 100	> 100	65.1		30.3	> 100	> 100	> 100	34.2		> 100	> 100	> 100	> 100	> 100
O=C(O)CN(CCNC(=O)OCC1c2ccccc2-c2ccccc21)CCNC(=O)OCC1c2ccccc2-c2ccccc21	36	35.1		40.7	32.9	45.7	39.9	49.6	> 100	35.6	96.3	37.2	67.7	46.7	42.1	67.5	50.6	47.5	42.7	73.4
Cc1cc(N(CCC#N)CCC#N)ccc1/C=N/NC(=O)c1cc(Cl)ccc1O	> 100		> 100	> 100	> 100	> 100		> 100	> 100	> 100	> 100	> 100	> 100	> 100		> 100	> 100	> 100		
CC1(C)OCC(COC(=O)C=[N+]=[N-])O1 (stereo unspecified)	> 100	> 100	> 100	> 100	> 100	> 100		> 100		> 100	> 100		> 100		> 100		> 100	> 100	> 100	> 100
OCc1ccc2[n+](c1)CCC1c3ccccc3NC21 (stereo unspecified)	> 300	> 300	> 300	> 300	> 300	> 300	> 300	> 300		> 300		> 300	> 300	> 300	> 300		> 300	> 300	> 300	> 300
COC(=O)C(CCC#N)(CCC#N)C(=O)OC	> 100	> 100		> 100	> 100	> 100	> 100	> 100		> 100		> 100		> 100	> 100			> 100		> 100
COc1ccc(N2C(=O)C3c4[nH]c5ccc(OCc6ccccc6)cc5c4C4CCC(C(C)(C)C)CC4C3C2=O)cc1 (stereo unspecified)	81.8	> 100	> 100	> 100	> 100	> 100	> 100	> 100	> 100	> 100	> 100	> 100	> 100	> 100	> 100		> 100	> 100		> 100
COc1ccc(C2Oc3c(cc(O)c(OC)c3C)[C@@H]2C)cc1OC (stereo partly specified)	> 100	> 100	> 100	> 100	> 100	> 100	> 100	> 100		> 100	> 100	> 100	> 100	> 100	> 100	> 100	> 100	> 100	> 100	> 100
Cc1nnc(Nc2ccccc2)o1	> 100	> 100	> 100	> 100	> 100		> 100	> 100	> 100	> 100	> 100	> 100	> 100	> 100	> 100	> 100	> 100	> 100		> 100
O=C(CC(=O)n1nc(-c2ccccc2)c(N=Nc2ccccc2C(=O)O)c1-c1ccccc1)Nc1ccc(Cl)cc1	> 100	> 100		> 100	> 100	> 100	> 100	93.9			> 100	> 100	80.8		> 100	83.1	> 100	> 100	42.2	81.8
NC(=O)N/N=C(\Cc1nc2ccc(Cl)cc2[nH]c1=O)C(=O)Nc1ccc(Cl)cc1Cl	> 100	> 100	> 100	> 100	> 100	> 100	> 100	> 100	> 100	> 100	> 100	> 100		> 100	> 100	> 100	> 100	> 100		> 100
c1ccc2c(c1)OC(N1CCCC1)c1cnc(N3CCCC3)nc1-2 (stereo unspecified)	> 100	> 100	78	> 100	> 100		> 100	> 100		97.5	> 100	> 100	47.8	> 100	> 100	57.1	> 100	> 100	47.3	> 100
CC(C)c1ccc2[nH]c(O)c(-c3[nH]c4ccccc4c3N=O)c2c1	16.8	14.6	22.9	18.1	15	21.2	17.8	16.1	22	20.7	30.5	14.6	6.66		26.7	26.3	43.4	20.6		36.1
CCOC(=O)C1Cc2[nH]c3ccccc3c2C(C)C1C (stereo unspecified)	28.2	39.8	33.9	32.6		33.9	> 100	27.3		30.1	32.2	13.4		31.4	33.7	34.4	76	22.7	32	34.5
Cn1cc2ccccc2c1-c1nc(N)nc(F)n1	> 100	> 100	> 100	> 100	> 100	> 100	> 100	> 100		> 100	> 100	> 100	> 100	> 100	> 100	> 100	> 100		> 100	> 100
Nc1nc2cc3nc(N)c(N)nc3cc2nc1N	> 100	> 100	> 100	> 100	> 100	> 100		> 100	> 100	> 100	> 100	> 100	> 100	> 100	> 100	> 100	> 100	> 100		> 100
OCCCCCNc1c2ccccc2nc2ccccc12	12.9	1.42	8.31	4.54	20.7	12.2	14.2	5.47	> 57.2	> 28.8	10.2	8.72	10.9	9.05	16.9	12.5	20.3	3.92		10.8
O=C(/C=C/c1ccc(O)c([N+](=O)[O-])c1)CC(=O)/C=C/c1ccc(O)c([N+](=O)[O-])c1	> 100	> 100		> 100	> 100	76.4		> 100	> 100	> 100	> 100	39.6	> 100	> 100	> 100	> 100	> 100	> 100		> 100
COc1ccccc1Nc1nc(N)nc(N)c1N=O	> 100	> 100		> 100	> 100	> 100	> 100	> 100	> 100		> 100	> 100	> 100	> 100	> 100	> 100	> 100	> 100	> 100	> 100

From PubChem BioAssay (NCI)
